Test [1] has as its system colon cancer CT26 cells. Kind of test: IN10018 and Docetaxel: microscopy and CRT/Annexin-V/PI flow cytometry. The class given is cell-based, mouse. Conditions: 48 hours, IN10018 5 µM, Docetaxel 0.1 µM, alone or combined. Here is the method: CT26 cells (Institute of Cell Biology, Chinese Academy of Sciences) were cultured with RPMI-1640 (Shanghai Basalmedia, catalog number: L210KJ, batch number: F210916) + 10% FBS (Gibco, catalog number: 10099-141c, batch number: 2158737cp), and passaged twice. When the cells were in good condition, they were placed in a 24-well plate. After 24 hours of cell spreading, four groups were set up. The first group was the control group, in which culture medium was added; the second group was IN10018 at a concentration of 5µM; the third group was Docetaxel (MCE, classification number: HY-B0011, batch number: 111613) with a concentration of 0.1µM; and the fourth group was the combination group of IN10018 (5 µM) and Docetaxel (0.1µM). The drugs were mixed and cultured in a 5 % CO2 incubator at 37°C for 48 hours.
After 48 hours of drug action, the cells were observed and photographed under a microscope. The photos were saved. Then the cells were collected for flow cytometry, and the cells were washed twice with flow buffer (PBS + 2% FBS). 0.5 µl of AF647 anti-calreticulin antibody (abcam, catalog number: ab196159, batch number: CR33676773) was added to each well, and fully mixed. The cells were incubated at 4 °C for 20 minutes in the dark. […] The mixture was incubated at room temperature in the dark for 15 minutes, and then analyzed on a flow cytometer.

Test [2] relates to mouse colon cancer CT26 cells. Kind of test: Docetaxel/Eribulin/Paclitaxel and Defactinib: microscopy and CRT/Annexin-V/PI flow cytometry. The note with it: 48 hours, Defactinib 5 µM, Docetaxel 0.3 µM, Eribulin 0.3 µM, Paclitaxel 6 µM, alone or combined with Defactinib. In kind it is cell-based. Here is the method:
CT26 cells were cultured in monolayer in vitro under the following conditions: RPMI-1640 medium with 10% fetal bovine serum, 37°C, 5% CO2. Trypsin was used for routine digestion and passage treatment two to three times a week. When the cells were in the exponential growth phase and the adherent confluence reached 80%-90%, the cells were harvested and plated.
CT26 cells were digested with trypsin, and then the cells were collected and counted. Based on the counting results, the cells were diluted with the corresponding complete culture medium to a concentration of 50,000 cells per milliliter. Then the cells were plated in 12-well cell culture plates, with 2 ml of cell suspension per well, i.e., 100,000 cells.
(§1) After plating, the cells were cultured in a 37°C and 5% CO2 incubator.
After 24 hours of plating, the test compounds Docetaxel, Eribulin, Paclitaxel and Defactinib were added to different wells, respectively.
(§2) After 48 hours of drug action, the cells were photographed using a microscope, and then trypsinized and collected for flow cytometry staining.
The cells were washed twice with flow buffer (DPBS + 2% FBS). 0.5 µL of AF647 Anti-Calreticulin Antibody was added to each well, and mixed well. The cells were incubated at 4°C in the dark for 20 min. After washing once with flow buffer, 195 µL of Annexin-V-FITC binding solution was added, and the cells were gently mixed well. 5 µL of Annexin-V-FITC antibody was added. After further mixing, 10 µL of PI dye was added and mixed well. The cells were incubated at room temperature in the dark for 15 min. The cells were then subjected to flow cytometry.
(§3) After the assay, the cell positive rate was analyzed by Flowjo (V10) software.

For test [3], the system named is mouse breast cancer 4T1 cells. As to the kind of experiment: Docetaxel/Eribulin and Defactinib: microscopy and CRT/Annexin-V/PI flow cytometry. The class given is cell-based. Conditions: 48 hours, Defactinib 5 µM, Docetaxel 0.3 µM, Eribulin 0.1 µM, alone or combined with Defactinib. Here is the method: 4T1 cells were cultured in a monolayer in vitro in RPMI-1640 medium with 10% fetal bovine serum in a 37 °C, 5% CO2 incubator. Trypsin was used for routine digestion and passage treatment two to three times a week. When the cells were in the exponential growth phase and the adherent confluence reached 80%-90%, the cells were harvested and plated.
4T1 cells were digested with trypsin, and then the cells were collected and counted. Based on the counting results, the cells were diluted with the corresponding complete culture medium to a concentration of 50,000 cells per milliliter. Then the cells were plated in 12-well cell culture plates, with 2 ml of cell suspension per well, i.e., 100,000 cells.
as §1
After 24 hours of plating, the test compounds Defactinib, Docetaxel and Eribulin were added to different wells, respectively.
as §2
The cells were washed twice with flow buffer (DPBS + 2% FBS). 0.5 µL of AF647 Anti-Calreticulin Antibody was added to each well, and mixed well. The cells were incubated at 4°C in the dark for 20 min. […]
as §3

Consider `CC(=O)O[C@@]12CO[C@@H]1C[C@H](O)[C@@]1(C)C(=O)[C@H](O)C3=C(C)[C@@H](OC(=O)[C@H](O)[C@@H](NC(=O)OC(C)(C)C)c4ccccc4)C[C@@](O)([C@@H](OC(=O)c4ccccc4)[C@H]21)C3(C)C` [Docetaxel], for which, in test [1], the “cell status under a microscope” value is recorded as “poor”. Further, the “cell status (cell death) under a microscope” value in test [2] and in test [3] was “obvious” each time.
